The results in this text go back to US20190365788A1, “CYCLIC PHOSPHATE SUBSTITUTED NUCLEOSIDE DERIVATIVES FOR THE TREATMENT OF LIVER DISEASES” (priority 2016, published 2019).

As a reminder, the IC50 is the concentration at which inhibition is half-maximal.

Each structure is given as a SMILES string. Where two headings read alike, the source gives them in different places.

The test system of data set [1] is HuH-1 cells. Description: In vitro inhibition of HuH-1 cells (MTT proliferation assay). The note with it: 72 h incubation, absorbance 570 nm, read-out: HuH-1: Relative IC50. It counts as cell-based. The protocol: (§1) The compounds of the invention were tested in cell based in vitro assays comprising HuH-1 cells and HepG2 cells, as in vitro models for potential hepatocellular carcinoma activity.
(§2) HuH-1 cells were purchased from JCRB, HepG2 cells from ATCC, and both tested with the following method:
(§3) Cells are suspended at a specific density in a specific culture medium. Then, 100 μl of cell suspension are plated per well in 96-well plates.
(§4) Compounds or negative controls (DMSO) are added to the cells (100 μl of a compound solution in its specific medium with a final concentration of 0.15% DMSO). Each compound concentration is tested in duplicate (6 concentrations per compound). Cells are incubated at 37° C. for 72 h without treating again.
(§5) SDS is added to control wells (final concentration of 1%) and kept for 15 min at 37° C. SDS 1% represents the positive control of proliferation inhibition. Cell supernatant is removed and 100 μl of a MTT (3-[4.5-dimethylthiazol-2-yl]-2.5-diphenyltetrazolium bromide) solution in fresh medium are added per well (MTT final concentration of 0.5 mg/ml) and incubated for 4 h at 37° C. MTT reaction is stopped and homogenized by adding 100 μl/well of SDS 10%, 0.01M HCl and incubated for 2 h at 37° C. Absorbance is measured at 570 nm.
A general note: Tetrazolium dyes change colour on reduction, which living cells bring about.

The test system of data set [2] is HepG2 cells. The data set is described as follows: In vitro inhibition of HepG2 cells (MTT proliferation assay). It counts as cell-based. Conditions: 72 h incubation, absorbance 570 nm, read-out: HepG2: Relative IC50. The protocol: as §1, §2, §3, §4, §5
Data set [3] relates to Human Hepatocytes. Description: In vitro conversion of prodrug to nucleoside triphosphate (NTP) in human hepatocytes. It counts as in vitro ADME. Conditions: 1 hour at 10 μM prodrug, intracellular NTP. The protocol:
The degree of conversion of a prodrug compound of the present invention to its corresponding nucleoside triphosphate (NTP) can be measured in vitro using the procedure described below.
A 2 mM stock solution of the prodrug test compound is prepared in 5% DMSO/95% MeOH to provide a final sample concentration of […]. A 5 μL aliquot is removed from this stock solution and added to 1 mL of either a rat or human cryopreserved hepatocyte sample to provide a control sample at concentration of 1 million cells/mL. This sample is assayed in triplicate and used as a test sample.
Human and rat hepatocytes are removed from liquid nitrogen storage and thawed by submerging the hepatocyte tube into a pre-heated 37° C. waterbath and gently shaking the tube back & forth until thawed. The thawed hepatocytes are then gently poured into a container of Hepatocyte Basal Medium (50 mL, pre-warmed to 37° C.) and washed. The hepatocyte tube is then rinsed out with pre-warmed Hepatocyte Basal Medium and the washed hepatocytes and rinse are combined and centrifuged at 500 rpm for 4 minutes at room temperature. The supernatant is then discarded and the resulting hepatocyte pellet is resuspended with Hepatocyte Basal Medium (pre-warmed to 37° C.) and the final hepatocyte concentration is adjusted to 1 million cells/mL to provide the final hepatocyte suspension.
A 1 mL aliquot is removed from the 1 million cells/mL final hepatocyte suspension, analyzed in triplicate and placed into 20 mL scintillation vial without a cap. 2 mM of the prodrug test sample is then added into the hepatocyte suspension to provide a 10 μM final concentration in the 1 mL hepatocyte sample. […]
The incubated hepatocyte suspension samples are transferred to a microcentrifuge tube using a transfer pipette and centrifuged at 500 rpm for 4 minutes at room temperature. […] The resulting extract solution is then stored in a refrigerator at 4° C. until ready for use, at which point the sample is first subjected to vortexing/sonication to ensure that all hepatocyte cells have burst. […]

As for `CC(C)OC(=O)[C@H](C)CCOP1(=O)OC[C@H]2S[C@@H](n3ccc(N)nc3=O)[C@@H](F)[C@@H]2O1` (single isomer, unassigned) [Compound 2 Diastereoisomer 1], the IC50 in data set [1] (Homo sapiens) was less than 500 nM.
In the case of `CC(C)OC(=O)C(C)CCOP1(=O)OC[C@H]2O[C@@H](n3cc(C(F)(F)F)c(=O)[nH]c3=O)C[C@@H]2O1` (mixture of isomers) [Mixture 6A/6B, Isopropyl 4-(((2S,4aR,6R,7aS)-6-(2,4-dioxo-5-(trifluoromethyl)-3,4-dihydropyrimidin-1 (2H)-yl)-2-oxidotetrahydro-4H-furo[3,2-d][1,3,2]dioxaphosphinin-2-yl)oxy)-2-methylbutanoate and Isopropyl 4-(((2R,4aR,6R,7aS)-6-(2,4-dioxo-5-(trifluoromethyl)-3,4-dihydropyrimidin-1 (2H)-yl)-2-oxidotetrahydro-4H-furo[3,2-d][1,3,2]dioxaphosphinin-2-yl)oxy)-2-methylbutanoate], the IC50 in data set [1] (Homo sapiens) and in data set [2] (Homo sapiens) was no less than 5000 nM each time.
With `CCOC(=O)[C@H](C)CCOP1(=O)OC[C@H]2S[C@@H](n3ccc(N)nc3=O)[C@@H](F)[C@@H]2O1` (single isomer, unassigned) [Compound 1 Diastereoisomer 1], the half-maximal inhibitory concentration (IC50) in data set [1] (Homo sapiens) is less than 500 nM.
In the case of `CC(C)OC(=O)[C@H](C)CCOP1(=O)OC[C@H]2O[C@@H](n3ccc(NC(=O)c4ccccc4)nc3=O)C(F)(F)[C@@H]2O1` (stereo partly drawn) [Compound 10, Isopropyl (2R)-4-(((4aR,6R,7aR)-6-(4-benzamido-2-oxopyrimidin-1(2H)-yl)-7,7-difluoro-2-oxidotetrahydro-4H-furo[3,2-d][1,3,2]dioxaphosphinin-2-yl)oxy)-2-methylbutanoate], the “Human Hepatocyte 1 hour at 10 μM, NTP” value in data set [3] was “C (C=≥1 μM)”.
Consider `CC(C)OC(=O)[C@@H](C)CCO[P@@]1(=O)OC[C@H]2O[C@@H](n3cnc4c(N)nc(Cl)nc43)C[C@@H]2O1.CC(C)OC(=O)[C@@H](C)CCO[P@]1(=O)OC[C@H]2O[C@@H](n3cnc4c(N)nc(Cl)nc43)C[C@@H]2O1` (single isomer, unassigned; diastereoisomer 1) [Compound 3 Diastereoisomer 1], for which the half-maximal inhibitory concentration (IC50) was 500 to 5000 nM in data set [1] and less than 500 nM in data set [2].
With `CC(C)OC(=O)[C@H](C)CCOP1(=O)OC[C@H]2S[C@@H](n3ccc(N)nc3=O)[C@@H](F)[C@@H]2O1` (single isomer, unassigned) [Compound 2 Diastereoisomer 2], in data set [3], the “Human Hepatocyte 1 hour at 10 μM, NTP” value is listed as “A (A=<0.5 μM)”. Besides, the concentration for half-maximal inhibition (IC50) in data set [1] was less than 500 nM; in data set [2] (Homo sapiens), 500 to 5000 nM.
Consider `COc1nc(N)nc2c1ncn2[C@@H]1O[C@@H]2COP(=O)(OCC[C@@H](C)C(=O)OC(C)C)O[C@H]2[C@@H]1O` (mixture of isomers) [Mixture 5A/5B, Isopropyl (R)-4-(((2S,4aR,6R,7S,7aS)-6-(2-amino-6-methoxy-9H-purin-9-yl)-7-hydroxy-2-oxidotetrahydro-4H-furo[3,2-d][1,3,2]dioxaphosphinin-2-yl)oxy)-2-methylbutanoate and Isopropyl (R)-4-(((2R,4aR,6R,7S,7aS)-6-(2-amino-6-methoxy-9H-purin-9-yl)-7-hydroxy-2-oxidotetrahydro-4H-furo[3,2-d][1,3,2]dioxaphosphinin-2-yl)oxy)-2-methylbutanoate], for which the IC50 in data set [1] (Homo sapiens) and in data set [2] (Homo sapiens) was no less than 5000 nM in each case.
Regarding `CCOC(=O)[C@H](C)CCOP1(=O)OC[C@H]2S[C@@H](n3ccc(N)nc3=O)[C@@H](F)[C@@H]2O1` (single isomer, unassigned) [Compound 1 Diastereoisomer 2], the “Human Hepatocyte 1 hour at 10 μM, NTP” value in data set [3] is reported as “A (A=<0.5 μM)”.
